# Experimental data: patent US10221138B2, “Biaryl derivatives as GPR120 agonists” (LG CHEM, LTD., priority 2013, dated 2019)
# Molecular target: T1, hGPR120 (Homo sapiens, UniProt Q5NUL3)
# T1 construct: expressed in transfected cells; host or cells: CHO-K1
# T1 sequence (Q5NUL3 1-361): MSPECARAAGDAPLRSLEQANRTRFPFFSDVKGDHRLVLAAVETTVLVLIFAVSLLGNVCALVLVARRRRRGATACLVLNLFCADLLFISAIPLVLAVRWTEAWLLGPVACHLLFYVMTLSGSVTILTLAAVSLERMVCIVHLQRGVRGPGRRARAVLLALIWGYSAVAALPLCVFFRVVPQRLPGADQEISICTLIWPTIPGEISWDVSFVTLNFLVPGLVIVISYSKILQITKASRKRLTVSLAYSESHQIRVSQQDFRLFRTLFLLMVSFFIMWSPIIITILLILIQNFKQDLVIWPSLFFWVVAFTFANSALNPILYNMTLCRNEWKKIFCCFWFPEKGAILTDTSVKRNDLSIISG
# Assay: Measurement of activity of GPR120 agonist (cell-based calcium fluorescence assay)
# Conditions: CHO-K1 cells expressing Ga16 and hGPR120, Calcium 5 dye fluorescence; activity class; read-out: EC50
# Method in brief: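 CHO-K1 cells co-expressing Gα16 and hGPR120, plated 18 h, loaded with Calcium 5 dye for 1 h at 37 °C, then given serially diluted agonists (final 0.5% DMSO). Fluorescence increase expressed as relative % of the 1% DMSO-only signal.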
row,Structure (SMILES),EC50
1,"O=C(O)CCCOc1c(F)cc(-c2cccnc2SC2CC2)cc1F [Example 205, 4-[4-(2-cyclopropylsulfanyl-pyridin-3-yl)-2,6-difluoro-phenoxy]-butanoic acid]",200 to 2000 nM
2,"CN(C)C1CCN(c2cccc(-c3cc(F)c(OCCCC(=O)O)c(F)c3)n2)C1 (centres unmarked) [Example 212, 4-[4-[6-[3-(dimethylamino)pyrrolidin-1-yl]-2-pyridyl]-2,6-difluoro-phenoxy]butanoic acid]",> 20000 nM
3,"O=C(O)CCCCOc1c(F)cc(-c2cccnc2OC2CCC2)cc1F [Example 214, 5-[4-(2-cyclobutoxy-pyridin-3-yl)-2,6-difluoro-phenoxy]-pentanoic acid]",< 200 nM
4,"O=C(O)CCCOc1c(F)cc(-c2cccnc2N2CCC(F)(F)C2)cc1F [Example 215, 4-[4-[2-(3,3-difluoropyrrolidin-1-yl)-3-pyridyl]-2,6-difluoro-phenoxy]butanoic acid]",200 to 2000 nM
5,"CN1CCN(c2ncccc2-c2cc(F)c(OCCCC(=O)O)c(F)c2)CC1 [Example 216, 4-[2,6-difluoro-4-[2-(4-methylpiperazin-1-yl)-3-pyridyl]phenoxy]butanoic acid]",> 20000 nM
6,"Cc1cc(Oc2ncccc2-c2cc(F)c(OCCCC(=O)O)c(F)c2)no1 [Example 217, 4-[2,6-difluoro-4-[2-(5-methylisoxazol-3-yl)oxy-3-pyridyl]phenoxy]butanoic acid]",2000 to 20000 nM
7,"O=C(O)CCCOc1c(F)cc(-c2cccnc2OCCN2CC2)cc1F [Example 218, 4-[4-[2-[2-(aziridin-1-yl)ethoxy]-3-pyridyl]-2,6-difluoro-phenoxy]butanoic acid]",> 20000 nM
8,"O=C(O)CCCOc1c(F)cc(-c2cccnc2OCc2ccco2)cc1F [Example 220, 4-[2,6-difluoro-4-[2-(2-furylmethoxy)-3-pyridyl]phenoxy]butanoic acid]",200 to 2000 nM
9,"CC1(COc2ncccc2-c2cc(F)c(OCCCC(=O)O)c(F)c2)COC1 [Example 221, 4-[2,6-difluoro-4-[2-[(3-methyloxetan-3-yl)methoxy]-3-pyridyl]phenoxy]butanoic acid]",> 20000 nM
10,"O=C(O)CCCOc1c(F)cc(-c2cccnc2OCC2CCOC2)cc1F (centres unmarked) [Example 222, 4-[2,6-difluoro-4-[2-(tetrahydrofuran-3-ylmethoxy)-3-pyridyl]phenoxy]butanoic acid]",2000 to 20000 nM
11,"O=C(O)CCCOc1c(F)cc(-c2cccnc2OC2CC2)cc1F [Example 225, 4-[4-(2-cyclopropoxy-pyridin-3-yl)-2,6-difluoro-phenoxy]-butyric acid]",200 to 2000 nM
12,"CC(C)(C)[Si](C)(C)OC1CCC(Oc2ncccc2-c2cc(F)c(OCCCC(=O)O)c(F)c2)C1 (centres unmarked) [Example 226, 4-(4-{2-[3-(tert-butyl-dimethyl-silanyloxy)-cyclopentyloxy]-pyridin-3-yl}-2,6-difluoro-phenoxy)-butyric acid]",> 20000 nM
13,"O=C(O)CCCOc1c(F)cc(-c2cccnc2OC2CCC(O)C2)cc1F (centres unmarked) [Example 227, 4-{2,6-difluoro-4-[2-(3-hydroxy-cyclopentyloxy)-pyridin-3-yl]-phenoxy}-butyric acid]",2000 to 20000 nM
14,"CC(C)COc1ncccc1-c1cc(F)c(OCCCC(=O)O)c(F)c1 [Example 230, 4-[2,6-difluoro-4-(2-isobutoxy-pyridin-3-yl)-phenoxy]-butyric acid]",< 200 nM
15,"CC(C)(C)COc1ncccc1-c1cc(F)c(OCCCC(=O)O)c(F)c1 [Example 231, 4-{4-[2-(2,2-dimethy-propoxy)-pyridin-3-yl]-2,6-difluoro-phenoxy}-butyric acid]",200 to 2000 nM
16,"O=C(O)CCCCOc1c(F)cc(-c2cccnc2OCC2CC2)cc1F [Example 239, 5-[4-[2-(cyclopropylmethoxy)-3-pyridyl]-2,6-difluoro-phenoxy]pentanoic acid]",< 200 nM
17,"O=C(O)CCCCOc1c(F)cc(-c2cccnc2OC2CCOC2)cc1F (centres unmarked) [Example 240, 5-[2,6-difluoro-4-(2-tetrahydrofuran-3-yloxy-3-pyridyl)phenoxy]pentanoic acid]",200 to 2000 nM
18,"O=C(O)CCCCOc1c(F)cc(-c2cccnc2OC2CCOCC2)cc1F [Example 241, 5-[2,6-difluoro-4-(2-tetrahydropyran-4-yloxy-3-pyridyl)phenoxy]pentanoic acid]",200 to 2000 nM
19,"CC(C)Oc1ncccc1-c1cc(F)c(SC(C)CCC(=O)O)c(F)c1 (centres unmarked) [Example 242, 4-[2,6-difluoro-4-(2-isopropoxy-pyridin-3-yl)-phenylsulfanyl]-pentanoic acid]",< 200 nM
20,"O=C(O)CCCSc1ccc(-c2cccnc2OC2CCOCC2)cc1F [Example 244, 4-{2-fluoro-4-[2-(tetrahydropyran-4-yloxy)-pyridin-3-yl]-phenylsulfanyl}-butyric acid]",200 to 2000 nM
21,"O=C(O)CCCSc1ccc(-c2cccnc2OC2CCOC2)cc1F (centres unmarked) [Example 245, 4-{2-fluoro-4-[2-(tetrahydrofuran-3-yloxy)-pyridin-3-yl]-phenylsulfanyl}-butyric acid]",200 to 2000 nM
22,"O=C(O)CCCSc1ccc(-c2cccnc2OCC2CCC2)cc1F [Example 246, 4-[4-(2-cyclobutylmethoxy-pyridin-3-yl)-2-fluoro-phenylsulfanyl]-butyric acid]",< 200 nM
23,"O=C(O)CCCSc1c(F)cc(-c2cccnc2OCC(F)(F)F)cc1F [Example 247, 4-{2,6-difluoro-4-[2-(2,2,2-trifluoro-ethoxy)-pyridin-3-yl]-phenylsulfanyl}-butyric acid]",< 200 nM
24,"O=C(O)CCCSc1c(F)cc(-c2cccnc2OCC2CCC2)cc1F [Example 248, 4-[4-(2-cyclobutylmethoxy-pyridin-3-yl)-2,6-difluoro-phenylsulfanyl]-butyric acid]",< 200 nM
25,"O=C(O)CCCSc1c(F)cc(-c2cccnc2NC2CCCC2)cc1F [Example 249, 4-[4-(2-cyclopentylamino-pyridin-3-yl)-2,6-difluoro-phenylsulfanyl]-butyric acid]",< 200 nM
26,"CC(C)Nc1ncccc1-c1cc(F)c(SCCCC(=O)O)c(F)c1 [Example 250, 4-[2,6-difluoro-4-(2-isopropylamino-pyridin-3-yl)-phenylsulfanyl]-butyric acid]",200 to 2000 nM

# The next lines start with the values.
row,EC50,Structure (SMILES)
1,< 200 nM,"CCSc1ncccc1-c1cc(F)c(OCCCC(=O)O)c(F)c1 [Example 206, 4-[4-(2-ethylsulfanyl-pyridin-3-yl)-2,6-difluoro-phenoxy]-butanoic acid]"
2,< 200 nM,"CCCCSc1ncccc1-c1cc(F)c(OCCCC(=O)O)c(F)c1 [Example 207, 4-[4-(2-butylsulfanyl-pyridin-3-yl)-2,6-difluoro-phenoxy]-butanoic acid]"
3,< 200 nM,"O=C(O)CCCSc1ccc(-c2ccccc2NC2CCCC2)cc1 [Example 208, 4-(2′-cyclopentylamino-biphenyl-4-ylsulfanyl)-butyric acid]"
4,< 200 nM,"Cc1cnc(OC2CCCC2)c(-c2cc(F)c(OCCCC(=O)O)c(F)c2)c1 [Example 209, 4-[4-(2-cyclopentyloxy-5-methyl-pyridin-3-yl)-2,6-difluoro-phenoxy]-butyric acid]"
5,< 200 nM,"CC(C)Sc1cccc(-c2ccc(OCCCC(=O)O)cc2)n1 [Example 210, 4-[4-(6-isopropylsulfanyl-2-pyridyl)phenoxy]butanoic acid]"
6,< 200 nM,"CC(C)Oc1ncccc1-c1cc(F)c(OCCCCC(=O)O)c(F)c1 [Example 213, 5-[2,6-difluoro-4-(2-isopropoxy-pyridin-3-yl)-phenoxy]-pentanoic acid]"
7,< 200 nM,"O=C(O)CCCOc1c(F)cc(-c2cccnc2OC2CCCCC2)cc1F [Example 228, 4-[4-(2-cyclohexyloxy-pyridin-3-yl)-2,6-difluoro-phenoxy]-butyric acid]"
8,< 200 nM,"O=C(O)CCCOc1c(F)cc(-c2cccnc2OCC2CCCC2)cc1F [Example 229, 4-[4-(2-cyclopentylmethoxy-pyridin-3-yl)-2,6-difluoro-phenoxy]-butyric acid]"
9,< 200 nM,"O=C(O)CCCCOc1c(F)cc(-c2cccnc2OC2CCCC2)cc1F [Example 232, 5-[4-(2-cyclopentyloxy-pyridin-3-yl)-2,6-difluoro-phenoxy]-pentanoic acid]"
10,< 200 nM,"O=C(O)CCCCOc1c(F)cc(-c2cccnc2SC2CCC2)cc1F [Example 233, 5-[4-(2-cyclobutylsulfanyl-3-pyridyl)-2,6-difluoro-phenoxy]pentanoic acid]"
11,< 200 nM,"O=C(O)CCCCOc1c(F)cc(-c2cccnc2SC2CCCC2)cc1F [Example 234, 5-[4-(2-cyclopentylsulfanyl-3-pyridyl)-2,6-difluoro-phenoxy]pentanoic acid]"
12,< 200 nM,"CC(C)Sc1ncccc1-c1cc(F)c(OCCCCC(=O)O)c(F)c1 [Example 235, 5-[2,6-difluoro-4-(2-isopropylsulfanyl-3-pyridyl)phenoxy]pentanoic acid]"
13,< 200 nM,"CCCSc1ncccc1-c1cc(F)c(OCCCCC(=O)O)c(F)c1 [Example 236, 5-[2,6-difluoro-4-(2-propylsulfanyl-3-pyridyl)phenoxy]pentanoic acid]"
14,< 200 nM,"CC(C)Sc1cccc(-c2cc(F)c(OCCCCC(=O)O)c(F)c2)n1 [Example 237, 5-[2,6-difluoro-4-(6-isopropylsulfanyl-2-pyridyl)phenoxy]pentanoic acid]"
15,< 200 nM,"CC(C)Oc1cccc(-c2cc(F)c(OCCCCC(=O)O)c(F)c2)n1 [Example 238, 5-[2,6-difluoro-4-(6-isopropoxy-2-pyridyl)phenoxy]pentanoic acid]"
